ChEMBL document CHEMBL5230157, “The natural anthraquinone dye purpurin exerts antibacterial activity by perturbing the FtsZ assembly” (Bioorg Med Chem, 2021)
The source made the active and inactive calls. No cut-off for these calls is given here.

Experiments:
[1] = biological target: T1, Cell division protein FtsZ (Escherichia coli K-12) (UniProt P0A9A6); test: Inhibition of KCl-induced Escherichia coli BL21 FtsZ polymerization at 40 uM incubate for 10 min followed by KCl stimulation by spectrofluorimeter based light-scattering assay
T1 sequence (whole entry): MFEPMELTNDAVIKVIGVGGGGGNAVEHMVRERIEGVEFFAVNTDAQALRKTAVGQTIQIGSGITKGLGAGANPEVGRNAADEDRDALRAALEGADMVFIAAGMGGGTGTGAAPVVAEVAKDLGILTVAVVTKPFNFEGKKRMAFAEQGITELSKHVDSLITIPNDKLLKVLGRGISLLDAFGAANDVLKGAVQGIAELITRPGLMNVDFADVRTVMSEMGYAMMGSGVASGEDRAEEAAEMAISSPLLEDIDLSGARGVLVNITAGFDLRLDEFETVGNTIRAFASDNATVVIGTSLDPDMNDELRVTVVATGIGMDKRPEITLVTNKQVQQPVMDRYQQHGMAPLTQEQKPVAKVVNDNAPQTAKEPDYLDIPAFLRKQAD

[2] = biological target: T1, Cell division protein FtsZ (Escherichia coli K-12); test: Inhibition of KCl-induced Escherichia coli BL21 FtsZ polymerization at 80 uM incubate for 10 min followed by KCl stimulation by spectrofluorimeter based light-scattering assay
[3] = biological target: T1, Cell division protein FtsZ (Escherichia coli K-12); test: Inhibition of KCl-induced Escherichia coli BL21 FtsZ polymerization assessed as decrease in FtsZ polymer size at 80 uM incubate for 1 hrs by […] staining based fluorescence microscopy
[4] = biological target: T1, Cell division protein FtsZ (Escherichia coli K-12); test: Inhibition of KCl-induced Escherichia coli BL21 FtsZ polymerization assessed as decrease in FtsZ polymer thickness at 80 uM incubate for 1 hrs by […] staining based fluorescence microscopy
[5] = biological target: T1, Cell division protein FtsZ (Escherichia coli K-12); test: Inhibition of KCl-induced Escherichia coli BL21 FtsZ polymerization assessed as decrease in FtsZ polymer average length at 80 uM incubate for 1 hrs by […] staining based fluorescence microscopy
[6] = biological target: T1, Cell division protein FtsZ (Escherichia coli K-12); test: Binding affinity to Escherichia coli BL21 FtsZ assessed as hydrophobic probe ANS-FtsZ complex fluorescence quenching at 2 uM for 30 mins by fluorescence analysis
[7] = biological target: T1, Cell division protein FtsZ (Escherichia coli K-12); test: Binding affinity to Escherichia coli BL21 FtsZ assessed as hydrophobic probe ANS-FtsZ complex fluorescence quenching at 5 uM for 30 mins by fluorescence analysis
[8] = biological target: T1, Cell division protein FtsZ (Escherichia coli K-12); test: Binding affinity to Escherichia coli BL21 FtsZ assessed as hydrophobic probe ANS-FtsZ complex fluorescence quenching at 10 uM for 30 mins by fluorescence analysis
[9] = biological target: T1, Cell division protein FtsZ (Escherichia coli K-12); test: Binding affinity to Escherichia coli BL21 FtsZ assessed as hydrophobic probe ANS-FtsZ complex fluorescence quenching at 20 uM for 30 mins by fluorescence analysis
[10] = biological target: T1, Cell division protein FtsZ (Escherichia coli K-12); test: Binding affinity to Escherichia coli BL21 FtsZ assessed as hydrophobic probe ANS-FtsZ complex fluorescence quenching at 40 uM for 30 mins by fluorescence analysis
[11] = biological target: T1, Cell division protein FtsZ (Escherichia coli K-12); test: Binding affinity to Escherichia coli BL21 FtsZ assessed as hydrophobic probe ANS-FtsZ complex fluorescence quenching at 80 uM for 30 mins by fluorescence analysis
[12] = biological target: T2, Cell division protein FtsZ (Escherichia coli K-12, UniProt P0A9A6); test: Binding affinity to Escherichia coli BL21 FtsZ assessed as dissociation constant of hydrophobic probe ANS-FtsZ complex fluorescence quenching incubated for 30 mins by double reciprocal plot analysis
T2 sequence (P0A9A6 whole entry): T1 sequence (whole entry)

[13] = biological target: T3, Cell division protein FtsZ (Bacillus subtilis) (UniProt A5Z1V5); test: Binding affinity to Bacillus subtilis FtsZ assessed as intrinsic tryptophan quenching incubated for 30 mins by fluorescence analysis
T3 sequence (whole entry): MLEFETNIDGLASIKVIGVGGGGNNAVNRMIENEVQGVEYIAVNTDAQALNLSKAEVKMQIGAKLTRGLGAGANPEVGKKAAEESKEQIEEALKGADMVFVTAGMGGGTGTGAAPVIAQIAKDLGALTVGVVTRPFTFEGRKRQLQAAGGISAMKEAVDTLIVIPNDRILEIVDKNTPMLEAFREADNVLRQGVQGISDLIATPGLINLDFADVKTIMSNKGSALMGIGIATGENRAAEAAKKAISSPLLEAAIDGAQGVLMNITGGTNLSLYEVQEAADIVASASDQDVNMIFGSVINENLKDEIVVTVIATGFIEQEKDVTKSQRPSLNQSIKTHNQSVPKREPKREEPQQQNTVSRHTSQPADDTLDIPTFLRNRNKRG

[14] = biological target: T4, Cell division protein FtsZ (Bacillus subtilis, UniProt A5Z1V5); test: Binding affinity to Bacillus subtilis FtsZ assessed as dissociation constant of intrinsic tryptophan quenching incubated for 30 mins by double reciprocal plot analysis
T4 sequence (A5Z1V5 whole entry): T3 sequence (whole entry)

[15] = biological target: T1, Cell division protein FtsZ (Escherichia coli K-12); test: Inhibition of Escherichia coli BL21 FtsZ assessed as inhibition of KCl-induced GTPase activity at 5 uM preincubated for 10 mins followed by KCl stimulation and measured after 10 mins by malachite green ammonium molybdate dye based spectroscopic analysis; conditions: time 20.0 min
[16] = biological target: T1, Cell division protein FtsZ (Escherichia coli K-12); test: Inhibition of Escherichia coli BL21 FtsZ assessed as inhibition of KCl-induced GTPase activity at 20 uM preincubated for 10 mins followed by KCl stimulation and measured after 10 mins by malachite green ammonium molybdate dye based spectroscopic analysis; conditions: time 20.0 min
[17] = biological target: T1, Cell division protein FtsZ (Escherichia coli K-12); test: Inhibition of Escherichia coli BL21 FtsZ assessed as inhibition of KCl-induced GTPase activity at 80 uM preincubated for 10 mins followed by KCl stimulation and measured after 10 mins by malachite green ammonium molybdate dye based spectroscopic analysis
HeLa [18] = test: Antiproliferative activity against human HeLa cells assessed as inhibition of cell proliferation incubated for 24 hrs by sulfo-rhodamine B assay; format: functional, cell-based
HeLa [19] = test: Antiproliferative activity against human HeLa cells assessed as inhibition of cell proliferation at 10 uM incubated for 24 hrs by sulforhodamine B assay; format: functional; design: scale not given: the % may be the effect or the level left
HeLa [20] = test: Antiproliferative activity against human HeLa cells assessed as inhibition of cell proliferation at 20 uM incubated for 24 hrs by sulforhodamine B assay; format: functional; design: scale not given: the % may be the effect or the level left
HeLa [21] = test: Antiproliferative activity against human HeLa cells assessed as inhibition of cell proliferation at 50 uM incubated for 24 hrs by sulforhodamine B assay; format: functional; design: scale not given: the % may be the effect or the level left
HeLa [22] = test: Antiproliferative activity against human HeLa cells assessed as inhibition of cell proliferation at 100 uM incubated for 24 hrs by sulforhodamine B assay; format: functional; design: scale not given: the % may be the effect or the level left
HeLa [23] = test: Antiproliferative activity against human HeLa cells assessed as inhibition of cell proliferation at 200 uM incubated for 24 hrs by sulforhodamine B assay; format: functional; design: scale not given: the % may be the effect or the level left
HeLa [24] = test: Antiproliferative activity against human HeLa cells assessed as inhibition of cell proliferation at 300 uM incubated for 24 hrs by sulforhodamine B assay; format: functional; design: scale not given: the % may be the effect or the level left
Tubulin (Homo sapiens) [25] = biological target: T5, Tubulin (Homo sapiens) (UniProt P68371+Q9H4B7+P0DPH7+P68366+Q13509+Q71U36+P04350+Q3ZCM7+P07437+P68363+Q9BQE3+Q6PEY2+Q13885+Q9BVA1+Q9BUF5); test: Inhibition of tubulin polymerization in human HeLa cells assessed as effect on interphase microtubule network at 80 to 150 uM for 24 hrs by […] staining based fluorescence microscopy; format: cell-based; conditions: dose 80-150 µM
Tubulin (Homo sapiens) [26] = biological target: T5, Tubulin (Homo sapiens); test: Inhibition of tubulin polymerization […] assessed as effect on MAP rich- tubulin polymer mass at 20 to 80 uM preincubated for 10 mins followed by GTP addition and measured after 1 hrs by Bradford assay; conditions: dose 20-80 µM, time 70.0 min

## O=C1c2ccccc2C(=O)c2c(O)c(O)cc(O)c21 [PURPURIN]
[1]
  inhibition: 31%
[2]
  inhibition: 47%
[3]
  inhibition: Active
[4]
  inhibition: Active
[5]
  inhibition: Active
[6]
  Activity: 14%
[7]
  Activity: 25%
[8]
  Activity: 35%
[9]
  Activity: 45%
[10]
  Activity: 66%
[11]
  Activity: 81%
[12]
  Kd: 11 µM
[13]
  Activity: Dose-Dependent Effect
[14]
  Kd: 5.2 µM
[15]
  inhibition: 11.5%
[16]
  inhibition: 15.9%
[17]
  inhibition: 21.9%
HeLa [18]
  IC50: 110 µM
HeLa [19]
  Activity: 6%
HeLa [20]
  Activity: 14%
HeLa [21]
  Activity: 28%
HeLa [22]
  Activity: 45%
HeLa [23]
  Activity: 72%
HeLa [24]
  Activity: 89%
Tubulin (Homo sapiens) [25]
  inhibition: inactive
Tubulin (Homo sapiens) [26]
  inhibition: inactive
